± gives the standard deviation.
Key:
[1] = chemical recovery into PDMS from spiked human plasma; higher = better extraction; settings: pooled human plasma, extraction method: PES with PDMS
[2] = chemical recovery from spiked human plasma; higher = better extraction; settings: pooled human plasma
[3] = chemical recovery by SPE of plasma after PDMS sampling; higher = better extraction; settings: pooled human plasma, extraction method: HLB SPE of plasma after PES
[4] = extraction method: PES+SPE (3 d PDMS equilibration then HLB SPE)
[5] = extraction method: SPE only (HLB 96-well)
[6] = extraction method: SPE only (HLB 96-well), PES comparison experiment
[7] = extraction method: solvent precipitation (ACN + hexane)
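For chemical recovery by SPE of plasma after PDMS sampling in this document: over 400 spiked chemicals quantified by LC-HRMS or GC-HRMS via internal standard calibration, recovery relative to spike mix added to unspiked plasma extract to correct matrix effects.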

SMILES | chemical recovery into PDMS ([1]; equilibration time (d): 1) [%] | chemical recovery into PDMS ([1]; equilibration time (d): 3) [%] | chemical recovery [2, 4] [%] | chemical recovery [2, 5] [%] | chemical recovery [2, 6] [%] | chemical recovery [2, 7] [%] | chemical recovery by SPE of plasma ([3]; equilibration time (d): 1) [%] | chemical recovery by SPE of plasma ([3]; equilibration time (d): 3) [%] | chemical recovery by SPE of plasma ([3]; equilibration time (d): 6) [%] | chemical recovery into PDMS ([1]; equilibration time (d): 6) [%]
Cc1cc(Cl)ccc1OCC(=O)O [MCPA] | 0.00252 ± 0.0044 | 0.00652 ± 0.0057 | 46.2 ± 2.6 | 43.1 ± 3 | 59.9 ± 5.7 | 71.8 ± 7.4 | 56.1 ± 11 | 64.2 ± 5.6 | 58.8 ± 3.1 | –
CC12CC3CC(C)(C1)CC(N)(C3)C2 [Memantine] | 3.61 ± 1.9 | 4.46 ± 2.7 | 14.8 ± 4.7 | 46.6 ± 1.4 | 45.1 ± 6.8 | 47.1 ± 4.5 | 6.36 ± 0.42 | 7.03 ± 1.2 | 5.53 ± 0.96 | 3.08 ± 2.4
COCC(=O)N(c1c(C)cccc1C)C(C)C(=O)OC (stereo not given) [Metalaxyl] | 33.1 ± 0.4 | 36.7 ± 3.2 | – | – | 50.3 ± 7.6 | 70.2 ± 2.1 | 5.41 ± 0.46 | 5.16 ± 0.64 | 0.955 ± 1.6 | 36.9 ± 0.38
Cc1cccc(C)c1N(Cn1cccn1)C(=O)CCl [Metazachlor] | 40.1 ± 1.9 | 42.9 ± 2.5 | 42.8 ± 5 | 38.6 ± 2.5 | 53.5 ± 7.4 | 66.2 ± 2.7 | 1.5 ± 0.11 | 1.57 ± 0.29 | 0.82 ± 0.13 | 42.7 ± 2.1
CC1(C)CCC(Cc2ccc(Cl)cc2)C1(O)Cn1cncn1 (stereo not given) [Metconazole] | 39.4 ± 2.5 | 41.9 ± 2.7 | – | – | 46.3 ± 8.6 | 74.3 ± 3.4 | 2.06 ± 0.36 | 1.76 ± 0.4 | 1.11 ± 0.42 | 41.91 ± 0.15
Cn1ncc(N)c(Cl)c1=O [Methyldesphenylchloridazon] | 1.07 ± 0.26 | 1.44 ± 0.31 | – | – | 35.8 ± 1.2 | – | 24.3 ± 8.3 | 21.3 ± 7.1 | 25 ± 8.3 | 1.24 ± 1.1
CCc1cccc(C)c1N(C(=O)CCl)C(C)COC (stereo not given) [Metolachlor] | 37.3 ± 1.4 | 40.7 ± 3.2 | 37.9 ± 5.3 | 38.1 ± 1.9 | 47.6 ± 6.7 | – | 0.504 ± 0.043 | 0.63 ± 0.12 | 0.323 ± 0.0041 | 40.6 ± 1.1
CSc1nnc(C(C)(C)C)c(=O)n1N [Metribuzin] | 25 ± 2.2 | 25.2 ± 1.9 | 49.7 ± 7.4 | 49 ± 2.9 | 54.2 ± 7.9 | 71.8 ± 2.9 | 10.9 ± 1.3 | 15.3 ± 1.4 | 10.4 ± 1.8 | 29.4 ± 1.2
CN(C)c1ccc(C(=O)c2ccc(N(C)C)cc2)cc1 [Michler's ketone] | 17.2 ± 9.7 | 15.5 ± 10 | – | 34.4 ± 1.9 | – | – | 1.38 ± 0.41 | 1.1 ± 0.12 | 0.502 ± 0.091 | 16.7 ± 4.2
CC[C@@]1([C@@H]2O[C@@H]([C@H]3O[C@@](O)(CO)[C@H](C)C[C@@H]3C)C[C@@H]2C)CC[C@H]([C@]2(C)CC[C@]3(C[C@H](O)[C@@H](C)[C@@H]([C@@H](C)[C@@H](OC)[C@H](C)C(=O)O)O3)O2)O1 [Monensin] | 37.1 ± 2.8 | 38.6 ± 0.52 | – | – | 29.9 ± 6.6 | 1.03 ± 1.8 | 3.19 ± 0.8 | 2.26 ± 0.39 | 1.33 ± 0.27 | 37.8 ± 2.2
CCCCC(C#N)(Cn1cncn1)c1ccc(Cl)cc1 (stereo not given) [Myclobutanil] | 38.4 ± 1.9 | 42.1 ± 3.6 | – | – | 48.5 ± 8.4 | 79.3 ± 2.2 | 1.71 ± 0.26 | 1.32 ± 0.3 | – | 41.6 ± 0.64
CCCCCCCCCCCCCC[N+](C)(C)[O-] [N,N-Dimethyltetradecylamine-N-oxide] | 0.599 ± 0.55 | 1.2 ± 0.35 | – | 71.5 ± 26 | 42.7 ± 8.4 | – | 15.7 ± 3.1 | 12.5 ± 4.9 | 8.54 ± 5.7 | 1.01 ± 0.26
CCCCCCCCCCCCCCN(C)C [N,N-Dimethyltetradecylamine] | – | 0.0161 ± 0.022 | – | – | 39.3 ± 8.7 | – | 0.241 ± 0.23 | 0.0666 ± 0.015 | 0.0207 ± 0.085 | –

Further lines, results first:

chemical recovery into PDMS ([1]; equilibration time (d): 1) [%] | chemical recovery into PDMS ([1]; equilibration time (d): 3) [%] | chemical recovery [2, 4] [%] | chemical recovery [2, 5] [%] | chemical recovery [2, 6] [%] | chemical recovery [2, 7] [%] | chemical recovery by SPE of plasma ([3]; equilibration time (d): 1) [%] | chemical recovery by SPE of plasma ([3]; equilibration time (d): 3) [%] | chemical recovery by SPE of plasma ([3]; equilibration time (d): 6) [%] | chemical recovery into PDMS ([1]; equilibration time (d): 6) [%] | SMILES
13.7 ± 1.6 | 21 ± 1.4 | 71.2 ± 11 | 45 ± 2.8 | 42.1 ± 5.8 | 77.3 ± 3.4 | 18.4 ± 2.3 | 14 ± 1.4 | 8.71 ± 0.66 | 23.6 ± 1.8 | COC(=O)Nc1nc2cc(C(=O)c3ccccc3)ccc2[nH]1 [Mebendazole]
40.5 ± 2.4 | 46.2 ± 3.4 | – | – | 47.7 ± 7 | – | – | – | 1.02 ± 1.8 | 44.5 ± 6.2 | CC(=O)[C@@]1(O)CC[C@H]2[C@@H]3C[C@H](C)C4=CC(=O)CC[C@]4(C)[C@H]3CC[C@@]21C [Medroxyprogesterone]
5.75 ± 0.43 | 9.79 ± 2.3 | 46 ± 4.5 | 50.3 ± 0.97 | 51.8 ± 4.5 | 68.7 ± 3.1 | 59.7 ± 9 | 57.3 ± 4.7 | 49.7 ± 6.9 | 11.1 ± 1.1 | Cc1cccc(C)c1N(Cn1cccn1)C(=O)C[S+](C)[O-] (stereo not given) [Metazachlor BH 479-11]
– | – | – | – | 50.4 ± 3.9 | – | 56.9 ± 8.4 | 63.4 ± 2.8 | 57.2 ± 4.4 | 0.0244 ± 0.042 | Cc1cccc(C)c1N(Cn1cccn1)C(=O)C(=O)O [Metazachlor OA]
18.7 ± 0.39 | 20.6 ± 0.91 | – | 45.3 ± 8.7 | 54.3 ± 6.8 | 78.8 ± 5.1 | 66.4 ± 8.3 | 66.7 ± 4.1 | 61.6 ± 2.4 | 20.7 ± 1.2 | Cc1cc(O)cc(C)c1[S+](C)[O-] (stereo not given) [Methiocarb-sulfoxide phenol]
94.1 ± 26 | 98.5 ± 33 | – | 19.9 ± 3.2 | – | 68 ± 24 | – | 104 ± 9.2 | – | 100 ± 28 | CS(=O)(=O)c1ccccc1 [Methylphenylsulfone]
19 ± 0.56 | 21.5 ± 1.7 | 40.1 ± 4.2 | 35.7 ± 1.4 | 54.1 ± 5.2 | 73.7 ± 3.3 | 32.4 ± 6.7 | – | 30.3 ± 2.7 | 21 ± 0.44 | CCc1cccc(C)c1N(C(=O)C(=O)O)C(C)COC (stereo not given) [Metolachlor OA]
1.97 ± 4.4 | 9.48 ± 1.4 | – | 35.6 ± 3.7 | 22.7 ± 9.6 | – | – | 27.8 ± 9.2 | 34.7 ± 5.3 | 7.51 ± 7 | CCc1cccc(C)c1N(C(=O)CS(=O)(=O)O)[C@@H](C)C(=O)O [Metolachlor-NOA 413-173]
33.6 ± 2.4 | 34.9 ± 3.2 | – | 43.2 ± 6.1 | 40.4 ± 10 | 85.3 ± 8.5 | 0.659 ± 0.14 | 0.405 ± 0.14 | 0.117 ± 0.082 | 31.5 ± 2.8 | Clc1ccc(COC(Cn2ccnc2)c2ccc(Cl)cc2Cl)c(Cl)c1 (stereo not given) [Miconazole]
32.4 ± 2.2 | 34 ± 3 | 98.9 ± 11 | 51.9 ± 3.6 | 42.4 ± 6.5 | 74.8 ± 3.3 | 0.591 ± 0.065 | 0.595 ± 0.073 | 0.297 ± 0.037 | 34.2 ± 1.6 | c1ccc2sc(NC3CCCCC3)nc2c1 [N-Cyclohexyl-2-benzothiazole-amine]
23.5 ± 1.3 | 23.2 ± 2.6 | 52.7 ± 7.9 | 46.9 ± 1.4 | 52.6 ± 6.1 | 68.2 ± 2.2 | 19.8 ± 2.8 | 25.7 ± 2.5 | 18.8 ± 3 | 26.3 ± 2.6 | CCNS(=O)(=O)c1ccccc1C [N-Ethyl-o-toluenesulfonamide]
4.16 ± 1.3 | 6.12 ± 3.5 | – | 45.8 ± 14 | 18.7 ± 4.1 | 83.2 ± 5.3 | 2.23 ± 1.6 | 2.7 ± 0.69 | 1.86 ± 0.51 | 6.6 ± 1.1 | c1ccc(Nc2cccc3ccccc23)cc1 [N-Phenyl-1-naphthylamine]

From the supplement of paper PMC10702517
